{"source": "patent US9427429B2", "about": "“Cancer diagnosis and imaging” (Tau Therapeutics LLC, priority 2010, dated 2016)", "format_in_all_cases": "cell-based", "key": {"[1]": {"tested_on": "human prostate cancer cells of the PC3 cell line", "assay": "Uptake of imaging marker 3H-FDG after mibefradil, PC3", "conditions": "PC3, 10 μM mibefradil for 72 hours; data not shown", "experimental": "(§1) The uptake of an imaging marker was also determined in human lung cancer cells of cell line A549. A549 cells were incubated with 5 μM, 10 μM and 15 μM concentrations of the cell cycle inhibitor mibefradil for 24 hours. After 24 hours of incubation with the mibefradil, the A549 cells were removed from mibefradil contact. After 30 minutes of being removed from mibefradil contact, the imaging marker tritiated FDG (hereinafter “3H-FDG”) was administered. […] Although not shown, incubation of human prostate cancer cells of the PC3 cell line with 10 μM mibefradil for 72 hours increased uptake of the subsequently introduced imaging marker 3H-FDG by about 60%."}, "[2]": {"tested_on": "human prostate cancer cells of cell line PC3", "assay": "Effect of mibefradil on the cell cycle of PC3 cells", "conditions": "PC3, 5 μM or 10 μM for 24 hours or 48 hours; effect of increasing concentration and contact time; FIG. 5", "experimental": "To measure the effect of mibefradil on the cell cycle of human prostate cancer cells of cell line PC3, PC3 cells were incubated with varying concentrations of mibefradil for varying times. The PC3 cells were incubated with either a 5 μM concentration or a 10 μM concentration for either 24 hours or 48 hours."}, "[3]": {"tested_on": "Human colon cancer cells, cell line HT29", "assay": "Uptake of imaging marker FDG after mibefradil, HT29", "conditions": "FDG 60 minutes after removal", "experimental": "The efficacy of the uptake of imaging markers after treatment with a cell cycle inhibitor was determined. Human colon cancer cells, cell line HT29, were first incubated for 24 hours with the cell cycle inhibitor mibefradil at concentrations of 5 μM (5 uM-FDG-HT29) and 10 μM (10 uM-FDG-HT29). After 24 hours of incubation with the mibefradil, the HT29 cells were removed from mibefradil contact. After 60 minutes of being removed from mibefradil contact, the imaging marker 2-deoxy-2-(^18F)fluoro-D-glucose (hereinafter, “FDG”) was administered.\nWith a concentration of 10 μM of mibefradil, the increase in uptake of FDG was about 100% as compared to uptake of cells not incubated with mibefradil."}, "[4]": {"tested_on": "human prostate cancer cells", "assay": "Cell cycle progression after mibefradil incubation, prostate cancer cells", "experimental": "(§2) To measure the efficacy of the cell cycle inhibitor mibefradil at stopping progression through the cell cycle, human lung cancer cells of cell line A549 and human prostate cancer cells of cell line were incubated with 10 μM mibefradil for 48 hours (M48H). […] Further data was collected by incubating the same cell lines with 10 μM of mibefradil for 18 hours followed by a 12 hour washout followed by another […] incubation with mibefradil (M18-12-18h)."}, "[5]": {"tested_on": "A10 cells", "assay": "Cell cycle analysis by flow cytometry and BUdR staining, with nocodazole block", "conditions": "for cell cycle arrest point: A10 cells treated 24 hours with T channel blocker before adding nocodazole, FIG. 3", "experimental": "Cell cycle analysis was performed using flow cytometry and BUdR staining. In FIG. 3, “Con” represents untreated, control cells. All other cell cultures were treated with nocodazole, which interferes with microtubule polymerization and blocks the cell cycle during M phase. […] Therefore, cell cultures were treated for 24 hours with T channel calcium channel blockers mibefradil (mib), nickel (Ni) or TTL-1177 (a proprietary compound owned by the assignee Tau Therapeutics), before adding nocodazole."}, "[6]": {"tested_on": "human lung cancer cells of cell line A549", "assay": "Uptake of imaging marker 3H-FDG after mibefradil, A549", "conditions": "3H-FDG 30 minutes after removal", "experimental": "as §1"}, "[7]": {"tested_on": "human lung cancer cells of cell line A549", "assay": "Cell cycle progression after mibefradil incubation, A549", "experimental": "as §2"}}, "data": [{"smiles": "COCC(=O)O[C@]1(CCN(C)CCCc2nc3ccccc3[nH]2)CCc2cc(F)ccc2[C@@H]1C(C)C", "note": "[mibefradil]", "values": [{"measurement": "increase in uptake of 3H-FDG", "setting": "[1]", "result": "about 60%"}, {"measurement": "proportion of cells in the G1 phase", "setting": "[2]", "result": "increases the proportion of cells in the G1 phase"}, {"measurement": "uptake of the imaging marker FDG vs cells not incubated", "setting": "[3]; HT29, 5 μM and 10 μM mibefradil 24 hours, FIG. 6", "result": "increased"}, {"measurement": "increase in uptake of FDG vs cells not incubated", "setting": "[3]; HT29, 10 μM mibefradil 24 hours", "result": "about 100%"}, {"measurement": "proportion of cells in the G1 phase vs control", "setting": "[4]; 10 μM for 18 hours, 12 hour washout, another 8 hour incubation (M18-12-18h)", "result": "greater proportion of cells in the G1 phase"}, {"measurement": "proportion of cells in the G1 phase", "setting": "[4]; 10 μM mibefradil for 48 hours (M48H), FIG. 4", "result": "increased the proportion of cells in the G1 phase"}, {"measurement": "cell cycle arrest point", "setting": "[5]", "result": "arrested cells at the cell cycle checkpoint between G0 and G1"}, {"measurement": "uptake of 3H-FDG", "setting": "[6]; A549, 5 μM, 10 μM and 15 μM mibefradil 24 hours, FIG. 7", "result": "increase in uptake being observed at all concentrations"}, {"measurement": "mibefradil concentration of maximal 3H-FDG uptake", "setting": "[6]; A549, 24 hours incubation, 5, 10, 15 μM tested", "result": 5, "unit": "µM"}, {"measurement": "proportion of cells in the G1 phase vs control", "setting": "[7]; A549, 10 μM for 18 hours, 12 hour washout, another 8 hour incubation (M18-12-18h)", "result": "greater proportion of cells in the G1 phase"}, {"measurement": "proportion of cells in the G1 phase", "setting": "[7]; A549, 10 μM mibefradil for 48 hours (M48H), FIG. 4", "result": "increased the proportion of cells in the G1 phase"}]}, {"smiles": "COC(=O)Nc1nc2ccc(C(=O)c3cccs3)cc2[nH]1", "note": "[nocodazole]", "values": [{"measurement": "cell cycle block", "setting": "[5]; A10 cells, nocodazole alone, flow cytometry", "result": "blocked cell cycle transit through M phase"}]}, {"smiles": "[Ni]", "note": "[nickel]", "values": [{"measurement": "cell cycle arrest point", "setting": "[5]", "result": "arrested cells at the cell cycle checkpoint between G0 and G1"}]}]}
